Tested on: IFN-a/Jak1Tyk2
Assay: Co-stimulation assay in lysed whole blood: IFNa (JAK1/TYK2) stimulated STAT1 phosphorylation
Type: cell-based
Conditions: 20 min, lysed human whole blood, IFNa 100 ng/mL + GM-CSF 10 ng/mL, pSTAT1 by flow cytometry
Method: Dilute RBC lysis buffer to 1× in distilled water. Add 2 mL blood to 38 mL of 1×RBC-lysis buffer. Incubate for 15 mins at RT, in dark. Spin at 300 g, 5 mins, to collect the pellet. Re-lyse if necessary. Re-suspend pellet in 5 mL of cRPMI.
Aliquot 80 μL of lysed human blood in to wells of 96 deep-well plate. Add 10 μl of (10× conc.) of different concentrations of compounds to all wells except controls (unstained and unstimulated) and mix it with the help of 100 uL multichannel. Add 10 uL of RPMI media in controls. For dilution of compounds and dilution range please refer Appendix. Incubate on water bath or CO2 incubator for 1 hour at 37° C. Add 10 μl of (10× conc.) of cytokine mix (GM-CSF and IFNa) (final conc. 10 ng/mL of GM-CSF and 100 ng/mL of IFNa) to each well except unstimulated and unstained controls and incubate further for 20 minutes on water bath at 37° C.
Add 900 μL of prewarmed 1× Fix/Lyse solution (Appendix) and mix it properly using 1000 μl multichannel, incubate further on water bath at 37° C. for 10 minutes (which includes time of addition). Centrifuge at 800×g for 5 minutes at 40° C.; remove 900 uL of supernatant and add 900 μL of 1×PBS. Centrifuge at 800×g for 5 minutes at 40° C., remove 900 μL of supernatant. Wash one more time with 900 μL of PBS (optional) and resuspend pellets in 100 uL of PBS.
Disrupt the pellet by gentle tapping and resuspend in 1000 μL of BD Phosflow Perm Buffer III and incubate plate on ice for 30 minutes. Centrifuge plate at 800×g for 5 minutes at 40° C. Wash two more times with 1000 μL of BD Pharmingen Stain Buffer.
Disrupt the pellet by gentle tapping. Resuspend pellets in 100 uL of Stain Buffer and add 5 μL of pSTAT5_AF488 Ab and 5 uL of pSTAT1_PE in all wells except unstained control and mix properly using 200 μl multichannel, incubate overnight at […]. Add 900 μL of wash buffer and centrifuge at 1800 rpm for 3 minutes at […]. Wash one more time with 1000 μL of BD Pharmingen Stain Buffer. Finally resuspend the pellet in 300 uL of BD Pharmingen Stain Buffer. Transfer the cells to 96-well v-bottom plate and acquire the cells in Beckman Coulter CytExpert. Acquiring cells in Flow Cytometer: Keep the threshold value to 250 and cell concentration should not exceed 100-500 cells/μL. Acquire at least 5,000-10,000 cells.
Cytokine dilution: 1) GM-CSF Stock at 100 ug/mL. Prepare an intermediate dilution of 1 ug/mL by adding 2 uL of stock into 198 uL of cRPMI. Further dilute to 100 ng/mL by adding 100 uL of the intermediate stock to 900 uL of cRPMI. 2) IFNa Stock at 200 ug/mL. Dilute IFNa stock 1:200 by adding 5 uL of stock into the 1000 uL of 100 ng/mL GM-CSF working stock as above to give a combined working stock of 1000 ng/mL of IFNa and 100 ng/mL GM-CSF (10×). Keep it on ice until used.
Lyse/Fix buffer preparation: Dilute 5× Lyse/Fix buffer to 1× using MQ water and keep at 37° C. until used.
BD Phosflow perm buffer III: Keep on ice/fridge.

| SMILES | IC50 |
| --- | --- |
| CNc1cc(Nc2cccn(C)c2=O)nc2c(C(=O)NC3CCC3)cnn12 [Compound 113, N-cyclobutyl-5-((1-methyl-2-oxo-1,2-dihydropyridin-3-yl)amino)-7-(methylamino)pyrazolo[1,5-a]pyrimidine-3-carboxamide] | < 100 nM |
| CNc1cc(Nc2cccc(N3CCOCC3)c2)nc2c(C(=O)NC3CC3)cnn12 [Compound 55, N-cyclopropyl-7-(methylamino)-5-((3-morpholinophenyl)amino)pyrazolo [1,5-a]pyrimidine-3-carboxamide] | < 100 nM |
| CC(C)(CO)CNC(=O)c1cnn2c(N)cc(Nc3cccc4c3OCO4)nc12 [Compound 58, 7-amino-5-(benzo[d][1,3]dioxol-4-ylamino)-N-(3-hydroxy-2,2-dimethylpropyl)pyrazolo[1,5-a]pyrimidine-3-carboxamide] | 100 to 1000 nM |
| CNc1cc(Nc2cc(F)cc(F)c2OC)nc2c(C(=O)NCC(C)(C)CO)cnn12 [Compound 23, 5-((3,5-difluoro-2-methoxyphenyl)amino)-N-(3-hydroxy-2,2-dimethylpropyl)-7-(methylamino)pyrazolo[1,5-a]pyrimidine-3-carboxamide] | < 100 nM |
| CNc1cc(Nc2cccn(-c3ccc(OC)nn3)c2=O)nc2c(C(=O)NC3CC3)cnn12 [Compound 40, N-cyclopropyl-5-((1-(6-methoxypyridazin-3-yl)-2-oxo-1,2-dihydropyridin-3-yl)amino)-7-(methylamino)pyrazolo[1,5-a]pyrimidine-3-carboxamide] | < 100 nM |
| CNc1cc(Nc2cccn(-c3cccc(C)n3)c2=O)nc2c(C(=O)N[C@H]3C[C@H]3F)cnn12 [Compound 111, N-((1S,2R)-2-fluorocyclopropyl)-5-((6′-methyl-2-oxo-2H-[1,2′-bipyridin]-3-yl)amino)-7-(methylamino)pyrazolo[1,5-a]pyrimidine-3-carboxamide] | < 100 nM |
| CNc1cc(Nc2cc(F)cc(F)c2OC)nc2c(C(=O)NCC(C)(O)CO)cnn12 (centres unmarked) [Compound 26, 5-((3,5-difluoro-2-methoxyphenyl)amino)-N-(2,3-dihydroxy-2-methylpropyl)-7-(methylamino)pyrazolo[1,5-a]pyrimidine-3-carboxamide] | < 100 nM |
| CNc1cc(Nc2ccnn2CC(F)(F)F)nc2c(C(=O)NC3CC3)cnn12 [Compound 70, N-cyclopropyl-7-(methylamino)-5-((1-(2,2,2-trifluoroethyl)-1H-pyrazol-5-yl)amino)pyrazolo[1,5-a]pyrimidine-3-carboxamide] | 100 to 1000 nM |
| CNC(=O)c1cnn2c(NC)cc(Nc3cc(F)cc(F)c3OC)nc12 [Compound 71, 5-((3,5-difluoro-2-methoxyphenyl)amino)-N-methyl-7-(methylamino)pyrazolo[1,5-a]pyrimidine-3-carboxamide] | 1000 to 10000 nM |
| CNc1cc(Nc2cccn(-c3ccc(OC)nn3)c2=O)nc2c(C(=O)NCC(C)(O)CO)cnn12 (centres unmarked) [Compound 105, N-(2,3-dihydroxy-2-methylpropyl)-5-((1-(6-methoxypyridazin-3-yl)-2-oxo-1,2-dihydropyridin-3-yl)amino)-7-(methylamino)pyrazolo[1,5-a]pyrimidine-3-carboxamide] | > 3000 nM |
| CNc1cc(Nc2cccc3c2OCCO3)nc2c(C(=O)NCC(C)(C)CO)cnn12 [Compound 25, 5-((2,3-dihydrobenzo[b][1,4]dioxin-5-yl)amino)-N-(3-hydroxy-2,2-dimethylpropyl)-7-(methylamino)pyrazolo[1,5-a]pyrimidine-3-carboxamide] | < 100 nM |
| CNc1cc(Nc2cccc3c2OCCO3)nc2c(C(=O)NCC(C)(C)O)cnn12 [Compound 63, 5-((2,3-dihydrobenzo[b][1,4]dioxin-5-yl)amino)-N-(2-hydroxy-2-methylpropyl)-7-(methylamino)pyrazolo[1,5-a]pyrimidine-3-carboxamide] | < 100 nM |
| CCOC(=O)c1nn(C)cc1Nc1cc(NC)n2ncc(C(=O)NC3CC3)c2n1 [Compound 42, ethyl 4-((3-(cyclopropylcarbamoyl)-7-(methylamino)pyrazolo[1,5-a]pyrimidin-5-yl)amino)-1-methyl-1H-pyrazole-3-carboxylate] | 100 to 1000 nM |
| CNc1cc(Nc2cccc3c2OCCO3)nc2c(C(=O)NC3CC(O)C3)cnn12 (centres unmarked) [Compound 102, 5-((2,3-dihydrobenzo[b][1,4]dioxin-5-yl)amino)-N-(3-hydroxycyclobutyl)-7-(methylamino)pyrazolo[1,5-a]pyrimidine-3-carboxamide] | < 100 nM |
| CNc1cc(Nc2ccccc2OC)nc2c(C(=O)NC3CC3)cnn12 [Compound 16, N-cyclopropyl-5-((2-methoxyphenyl)amino)-7-(methylamino)pyrazolo[1,5-a]pyrimidine-3-carboxamide] | < 100 nM |
| CNc1cc(Nc2cccc3c2OCCO3)nc2c(C(=O)NCC(C)(O)CO)cnn12 (centres unmarked) [Compound 65, 5-((2,3-dihydrobenzo[b][1,4]doxin-5-yl)amino)-N-(2,3-dihydroxy-2-methylpropyl)-7-(methylamino)pyrazolo[1,5-a]pyrimidine-3-carboxamide] | < 100 nM |
| CNc1cc(Nc2ccc3c(c2)CN(C)CC3)nc2c(C(=O)NC3CC3)cnn12 [Compound 61, N-cyclopropyl-5-((2-methyl-1,2,3,4-tetrahydroisoquinolin-7-yl)amino)-7-(methylamino)pyrazolo[1,5-a]pyrimidine-3-carboxamide] | 1000 to 10000 nM |
| CCNc1cc(Nc2cc(C)cc(C)c2)nc2c(C(N)=O)cnn12 [Compound 72, 5-((3,5-dimethylphenyl)amino)-7-(ethylamino)pyrazolo[1,5-a]pyrimidine-3-carboxamide] | 100 to 1000 nM |
| CNc1cc(Nc2cnn(C3CCNC3=O)c2)nc2c(C(=O)NC3CC3)cnn12 (centres unmarked) [Compound 116, N-cyclopropyl-7-(methylamino)-5-((1-(2-oxopyrrolidin-3-yl)-1H-pyrazol-4-yl)amino)pyrazolo[1,5-a]pyrimidine-3-carboxamide] | 1000 to 10000 nM |
| CNc1cc(Nc2cccc3c2OCCC3)nc2c(C(=O)NC3CCC3)cnn12 [Compound 89, 5-(chroman-8-ylamino)-N-cyclobutyl-7-(methylamino)pyrazolo[1,5-a]pyrimidine-3-carboxamide] | < 100 nM |
| CNc1cc(Nc2csnc2C(=O)OC)nc2c(C(=O)NC3CC3)cnn12 [Compound 39, methyl 4-((3-(cyclopropylcarbamoyl)-7-(methylamino)pyrazolo[1,5-a]pyrimidin-5-yl)amino)isothiazole-3-carboxylate] | > 300 nM |
| CNc1cc(Nc2cccn(C)c2=O)nc2c(C(=O)NC3CC(C#N)C3)cnn12 (centres unmarked) [Compound 87, N-(3-cyanocyclobutyl)-5-((1-methyl-2-oxo-1,2-dihydropyridin-3-yl)amino)-7-(methylamino)pyrazolo[1,5-a]pyrimidine-3-carboxamide] | 100 to 1000 nM |
| CNc1cc(Nc2cccn(-c3ccccn3)c2=O)nc2c(C(=O)NC3CC3)cnn12 [Compound 33, N-cyclopropyl-7-(methylamino)-5-((2-oxo-2H-[1,2′-bipyridin]-3-yl)amino)pyrazolo[1,5-a]pyrimidine-3-carboxamide] | < 100 nM |
| [2H]C([2H])([2H])Nc1cc(Nc2cc(F)cc3c2OCCO3)nc2c(C(=O)N[C@H]3C[C@H]3F)cnn12 [Compound 79, 5-((7-fluoro-2,3-dihydrobenzo[b][1,4]dioxin-5-yl)amino)-N-((1S,2R)-2-fluorocyclopropyl)-7-((methyl-d3)amino)pyrazolo[1,5-a]pyrimidine-3-carboxamide] | < 100 nM |

Same assay, conditions: lysed human whole blood; IFNa 100 ng/mL + GM-CSF 10 ng/mL, 20 minutes; pSTAT1 by flow cytometry

| SMILES | IC50 |
| --- | --- |
| CNc1cc(Nc2cc(F)cc(F)c2OC)nc2c(C(N)=O)cnn12 [Compound 13, 5-((3,5-difluoro-2-methoxyphenyl)amino)-7-(methylamino)pyrazole[1,5-a]pyrimidine-3-carboxamide] | < 100 nM |
| CNc1cc(Nc2cc(F)cc(F)c2OC)nc2c(C(=O)NC3CC3)cnn12 [Compound 19] | < 100 nM |
